Results reported in the NIST ThermoML archive (doi:10.1016/j.fluid.2017.01.019).
± gives the expanded uncertainty stated by the source.

Test: xn = mol fraction of the nth substance listed
Conditions: 100 kPa, Liquid; for viscosity: Falling or rolling sphere viscometry; for speed of sound: Frequency=3 MHz, Sing-around technique in a fixed-path interferometer; for mass density: Vibrating tube method

CCCCO [butan-1-ol] + CO
viscosity (313.15 K, x1 = 0.0997): 0.56 ± 0.15 mPa·s
viscosity (313.15 K, x1 = 0.1994): 0.66 ± 0.15 mPa·s
viscosity (313.15 K, x1 = 0.3068): 0.77 ± 0.15 mPa·s
viscosity (313.15 K, x1 = 0.3991): 0.88 ± 0.15 mPa·s
viscosity (313.15 K, x1 = 0.5082): 1.02 ± 0.15 mPa·s
viscosity (313.15 K, x1 = 0.604): 1.18 ± 0.15 mPa·s
viscosity (313.15 K, x1 = 0.6992): 1.29 ± 0.15 mPa·s
viscosity (313.15 K, x1 = 0.7994): 1.47 ± 0.15 mPa·s
viscosity (313.15 K, x1 = 0.9038): 1.66 ± 0.15 mPa·s
viscosity (313.15 K, x1 = 1): 1.85 ± 0.15 mPa·s
speed of sound (313.15 K, x1 = 0.0997): 1081.8 ± 1.3 m/s
speed of sound (313.15 K, x1 = 0.1994): 1101 ± 1.3 m/s
speed of sound (313.15 K, x1 = 0.3068): 1119.8 ± 1.3 m/s
speed of sound (313.15 K, x1 = 0.3991): 1134.2 ± 1.3 m/s
speed of sound (313.15 K, x1 = 0.5082): 1147.5 ± 1.3 m/s
speed of sound (313.15 K, x1 = 0.604): 1160.7 ± 1.3 m/s
speed of sound (313.15 K, x1 = 0.6992): 1168.3 ± 1.3 m/s
speed of sound (313.15 K, x1 = 0.7994): 1178.9 ± 1.3 m/s
speed of sound (313.15 K, x1 = 0.9038): 1185.7 ± 1.3 m/s
speed of sound (313.15 K, x1 = 1): 1190.9 ± 1.3 m/s
mass density (313.15 K, x1 = 0.0997): 777.683 ± 0.25 kg/m3
mass density (313.15 K, x1 = 0.1994): 781.397 ± 0.25 kg/m3
mass density (313.15 K, x1 = 0.3068): 784.606 ± 0.24 kg/m3
mass density (313.15 K, x1 = 0.3991): 786.863 ± 0.24 kg/m3
mass density (313.15 K, x1 = 0.5082): 789.167 ± 0.24 kg/m3
mass density (313.15 K, x1 = 0.604): 790.889 ± 0.24 kg/m3
mass density (313.15 K, x1 = 0.6992): 792.224 ± 0.24 kg/m3
mass density (313.15 K, x1 = 0.7994): 793.273 ± 0.24 kg/m3
mass density (313.15 K, x1 = 0.9038): 793.979 ± 0.24 kg/m3
mass density (313.15 K, x1 = 1): 794.617 ± 0.24 kg/m3
viscosity (318.15 K, x1 = 0.0997): 0.53 ± 0.15 mPa·s
viscosity (318.15 K, x1 = 0.1994): 0.61 ± 0.15 mPa·s
viscosity (318.15 K, x1 = 0.3068): 0.71 ± 0.15 mPa·s
viscosity (318.15 K, x1 = 0.3991): 0.81 ± 0.15 mPa·s
viscosity (318.15 K, x1 = 0.5082): 0.93 ± 0.15 mPa·s
viscosity (318.15 K, x1 = 0.604): 1.05 ± 0.15 mPa·s
viscosity (318.15 K, x1 = 0.6992): 1.17 ± 0.15 mPa·s
viscosity (318.15 K, x1 = 0.7994): 1.33 ± 0.15 mPa·s
viscosity (318.15 K, x1 = 0.9038): 1.49 ± 0.15 mPa·s
viscosity (318.15 K, x1 = 1): 1.66 ± 0.15 mPa·s
speed of sound (318.15 K, x1 = 0.0997): 1065.7 ± 1.3 m/s
speed of sound (318.15 K, x1 = 0.1994): 1084.9 ± 1.3 m/s
speed of sound (318.15 K, x1 = 0.3068): 1103.6 ± 1.3 m/s
speed of sound (318.15 K, x1 = 0.3991): 1118 ± 1.3 m/s
speed of sound (318.15 K, x1 = 0.5082): 1131.2 ± 1.3 m/s
speed of sound (318.15 K, x1 = 0.604): 1144.4 ± 1.3 m/s
speed of sound (318.15 K, x1 = 0.6992): 1151.8 ± 1.3 m/s
speed of sound (318.15 K, x1 = 0.7994): 1162.4 ± 1.3 m/s
speed of sound (318.15 K, x1 = 0.9038): 1169.2 ± 1.3 m/s
speed of sound (318.15 K, x1 = 1): 1174.2 ± 1.2 m/s
mass density (318.15 K, x1 = 0.0997): 773.076 ± 0.26 kg/m3
mass density (318.15 K, x1 = 0.1994): 776.932 ± 0.25 kg/m3
mass density (318.15 K, x1 = 0.3068): 780.263 ± 0.24 kg/m3
mass density (318.15 K, x1 = 0.3991): 782.592 ± 0.24 kg/m3
mass density (318.15 K, x1 = 0.5082): 784.996 ± 0.24 kg/m3
mass density (318.15 K, x1 = 0.604): 786.847 ± 0.24 kg/m3
mass density (318.15 K, x1 = 0.6992): 788.248 ± 0.24 kg/m3
mass density (318.15 K, x1 = 0.7994): 789.325 ± 0.24 kg/m3
mass density (318.15 K, x1 = 0.9038): 789.993 ± 0.24 kg/m3
mass density (318.15 K, x1 = 1): 790.655 ± 0.24 kg/m3
viscosity (323.15 K, x1 = 0.0997): 0.51 ± 0.15 mPa·s
viscosity (323.15 K, x1 = 0.1994): 0.58 ± 0.15 mPa·s
viscosity (323.15 K, x1 = 0.3068): 0.66 ± 0.15 mPa·s
viscosity (323.15 K, x1 = 0.3991): 0.75 ± 0.15 mPa·s
viscosity (323.15 K, x1 = 0.5082): 0.86 ± 0.15 mPa·s
viscosity (323.15 K, x1 = 0.604): 0.96 ± 0.15 mPa·s
viscosity (323.15 K, x1 = 0.6992): 1.06 ± 0.15 mPa·s
viscosity (323.15 K, x1 = 0.7994): 1.2 ± 0.15 mPa·s
viscosity (323.15 K, x1 = 0.9038): 1.35 ± 0.15 mPa·s
viscosity (323.15 K, x1 = 1): 1.5 ± 0.15 mPa·s
speed of sound (323.15 K, x1 = 0.0997): 1049.7 ± 1.3 m/s
speed of sound (323.15 K, x1 = 0.1994): 1068.9 ± 1.3 m/s
speed of sound (323.15 K, x1 = 0.3068): 1087.5 ± 1.3 m/s
speed of sound (323.15 K, x1 = 0.3991): 1101.8 ± 1.3 m/s
speed of sound (323.15 K, x1 = 0.5082): 1115 ± 1.3 m/s
speed of sound (323.15 K, x1 = 0.604): 1128 ± 1.3 m/s
speed of sound (323.15 K, x1 = 0.6992): 1135.4 ± 1.3 m/s
speed of sound (323.15 K, x1 = 0.7994): 1145.9 ± 1.3 m/s
speed of sound (323.15 K, x1 = 0.9038): 1152.6 ± 1.3 m/s
speed of sound (323.15 K, x1 = 1): 1157.6 ± 1.2 m/s
mass density (323.15 K, x1 = 0.0997): 768.447 ± 0.26 kg/m3
mass density (323.15 K, x1 = 0.1994): 772.448 ± 0.25 kg/m3
mass density (323.15 K, x1 = 0.3068): 775.921 ± 0.24 kg/m3
mass density (323.15 K, x1 = 0.3991): 778.306 ± 0.24 kg/m3
mass density (323.15 K, x1 = 0.5082): 780.936 ± 0.24 kg/m3
mass density (323.15 K, x1 = 0.604): 782.762 ± 0.24 kg/m3
mass density (323.15 K, x1 = 0.6992): 784.201 ± 0.24 kg/m3
mass density (323.15 K, x1 = 0.7994): 785.373 ± 0.24 kg/m3
mass density (323.15 K, x1 = 0.9038): 785.98 ± 0.24 kg/m3
mass density (323.15 K, x1 = 1): 786.645 ± 0.24 kg/m3
